In patent publication US20260184687A1, “DIHYDROINDENE DERIVATIVES AS MALT1 INHIBITORS” (C4X Discovery Limited, priority 2022, published 2026):

Legend:
[1] = system: IL-2 release from stimulated Jurkat cells; test: Human IL-2 Release Phenotypic Assay (Assay 3); type: cell-based; settings: Jurkat cells (clone E6-1), 200 ng/mL PMA + 300 ng/mL ionomycin, IL-2 by ELISA
Procedure: This assay measured the inhibition by MALT1 inhibitors of the IL-2 release from stimulated Jurkat cells, a human immortalized T lymphocyte cell line. IL-2 production from Jurkat cells is regulated by activation of NFκB signalling, which is in turn regulated by MALT1 protease activity.
Jurkat cells (clone E6-1, ATCC) were cultured in RPMI1640 supplemented with 10% (v/v) FBS and 1% (v/v) penicillin/streptomycin (100× liquid stocks). Cells were seeded in 96-well white tissue culture-treated plates (Perkin Elmer) at 50 000 cells/well and incubated overnight at 37° C., 5% CO2. Test compounds in DMSO at half-log dilutions were added to the cells and incubated for 30 mins. Final DMSO concentration was 0.5%. Cells were then stimulated with 200 ng/mL PMA+300 ng/mL ionomycin and incubated for 48 hours. […] IC50 values were calculated using GraphPad Prism using 4-parameter non-linear regression curve fit.

[2] = biological target: T1, FL hMALT1 enzyme (Homo sapiens, UniProt Q9UDY8); test: biochemical;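 note: Cell-free protease assay: enzyme preincubated with compound 30 min at room temperature, then cleavage of fluorogenic Ac-LVSR-AMC substrate (100 µM) tracked by fluorescence (ex 360/em 460 nm)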
T1 sequence (Q9UDY8 1-824): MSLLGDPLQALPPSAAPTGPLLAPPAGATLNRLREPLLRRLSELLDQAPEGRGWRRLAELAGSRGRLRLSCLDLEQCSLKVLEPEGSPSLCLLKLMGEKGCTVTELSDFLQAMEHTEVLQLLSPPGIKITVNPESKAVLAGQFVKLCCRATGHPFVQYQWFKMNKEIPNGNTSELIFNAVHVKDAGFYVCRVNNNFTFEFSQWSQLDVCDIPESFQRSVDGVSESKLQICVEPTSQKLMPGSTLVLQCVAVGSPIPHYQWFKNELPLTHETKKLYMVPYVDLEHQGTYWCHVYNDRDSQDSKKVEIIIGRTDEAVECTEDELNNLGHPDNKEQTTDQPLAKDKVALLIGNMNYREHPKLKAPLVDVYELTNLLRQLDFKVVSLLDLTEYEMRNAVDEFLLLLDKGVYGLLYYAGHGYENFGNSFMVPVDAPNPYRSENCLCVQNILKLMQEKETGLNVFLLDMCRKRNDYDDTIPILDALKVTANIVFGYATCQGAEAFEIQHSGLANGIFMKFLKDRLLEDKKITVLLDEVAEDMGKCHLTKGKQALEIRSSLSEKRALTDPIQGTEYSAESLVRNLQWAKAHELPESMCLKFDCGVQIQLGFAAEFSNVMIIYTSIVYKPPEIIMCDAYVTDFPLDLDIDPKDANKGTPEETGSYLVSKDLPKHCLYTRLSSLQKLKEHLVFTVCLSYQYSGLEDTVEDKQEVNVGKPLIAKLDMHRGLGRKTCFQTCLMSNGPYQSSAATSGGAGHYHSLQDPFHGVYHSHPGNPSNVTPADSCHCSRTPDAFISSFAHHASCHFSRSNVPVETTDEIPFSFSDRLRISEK
Procedure: MALT1 protease activity was assessed in vitro by measuring the cleavage of a fluorogenic tetrapeptide substrate.
For a higher sensitivity assay, commercially available FL hMALT1 enzyme (Abcam, 1-10 nM) was incubated with substrate (Ac-LVSR-AMC, 100 μM) in reaction buffer comprising 50 mM HEPES (pH7.0), 25 mM KCl, 0.1% (v/v) CHAPS, 1 mM TCEP and 0.7 M sodium citrate.
Test compounds dissolved in DMSO were dispensed into assay plates (384-well, black, shallow ProxiPlates). 7 μl enzyme solution was added and incubated at room temperature for 30 minutes to allow compound binding to occur. 2 μl substrate solution was then added and the fluorescence (excitation 360 nm, emission 460 nm) read every 15 minutes using a suitable plate reader. Final assay DMSO concentration was 1%. […] IC50 values were calculated using GraphPad Prism using a 4-parameter non-linear regression curve fit.

SMILES | IC50 ([1]; 48 hours) | IC50 [2] | IC50 ([1]; Homo sapiens, Jurkat, 48 h)
CN(C(=O)C1CNC(=O)O1)[C@@H](c1ccc(N[C@@H]2Cc3ccccc3C2(C)C)cn1)C(F)(F)F (single isomer, unassigned) [Example 108] | 900 nM | 150 nM | –
CN(C(=O)C1CNC(=O)O1)[C@@H](c1ccc(N[C@@H]2Cc3ccccc3C2(C)C)cn1)C(F)(F)F (single isomer, unassigned) [Example 109] | 900 nM | 760 nM | –
CN(C(=O)[C@H]1C[C@H](N(C)C)C1)[C@@H](c1ccc(NC2Cc3ccccc3C2(C)C)cn1)C(F)(F)F (single isomer, unassigned) [Example 112] | – | 230 nM | 430 nM
CN(C(=O)[C@H]1C[C@H](N(C)C)C1)[C@@H](c1ccc(NC2Cc3ccccc3C2(C)C)nc1)C(F)(F)F (single isomer, unassigned) [Example 114] | – | 190 nM | 1020 nM
CN(C(=O)[C@H]1C[C@H](N(C)C)C1)[C@@H](c1ccc(NC2Cc3ccccc3C2(C)C)nc1)C(F)(F)F (single isomer, unassigned) [Example 115] | 510 nM | 240 nM | –
CN(C(=O)C1CCNC(=O)C1)[C@@H](c1ccc(NC2Cc3ccccc3C2(C)C)cn1)C(F)(F)F (single isomer, unassigned) [Example 117] | 2060 nM | 240 nM | –
CN(C(=O)C1CCNC(=O)C1)[C@@H](c1ccc(NC2Cc3ccccc3C2(C)C)cn1)C(F)(F)F (single isomer, unassigned) [Example 119] | 1720 nM | 150 nM | –
CN(C(=O)C1CCCNC1)[C@@H](c1ccc(NC2Cc3ccccc3C2(C)C)cn1)C(F)(F)F (single isomer, unassigned) [Example 124] | 1290 nM | 190 nM | –
CN1CCCC(C(=O)N(C)[C@@H](c2ccc(NC3Cc4ccccc4C3(C)C)cn2)C(F)(F)F)C1 (single isomer, unassigned) [Example 129] | – | 210 nM | 1800 nM
CN1CCC(C(=O)N(C)[C@@H](c2ccc(NC3Cc4ccccc4C3(C)C)cn2)C(F)(F)F)CC1 (single isomer, unassigned) [Example 132] | 1370 nM | 250 nM | –
CN1CCC(C(=O)N(C)[C@@H](c2ccc(NC3Cc4ccccc4C3(C)C)cn2)C(F)(F)F)CC1 (single isomer, unassigned) [Example 133] | 600 nM | 150 nM | –
CN(C(=O)C1CNC(=O)CO1)[C@@H](c1ccc(NC2Cc3ccccc3C2(C)C)cn1)C(F)(F)F (single isomer, unassigned) [Example 134] | 710 nM | 160 nM | –
CN(C(=O)C1CNC(=O)CO1)[C@@H](c1ccc(NC2Cc3ccccc3C2(C)C)cn1)C(F)(F)F (single isomer, unassigned) [Example 137] | 1250 nM | 150 nM | –
CN(C(=O)C1CN2CCC1CC2)[C@@H](c1ccc(NC2Cc3ccccc3C2(C)C)cn1)C(F)(F)F (single isomer, unassigned) [Example 140] | – | 180 nM | 1270 nM
CN(C(=O)C1CN2CCC1CC2)[C@@H](c1ccc(NC2Cc3ccccc3C2(C)C)cn1)C(F)(F)F (single isomer, unassigned) [Example 141] | 1230 nM | 210 nM | –
CN(C(=O)N1CCS(=O)(=O)CC1)[C@@H](c1ccc(NC2Cc3ccccc3C2(C)C)cn1)C(F)(F)F (single isomer, unassigned) [Example 142] | – | 200 nM | 1790 nM
CN1CCC(C(=O)N(C)[C@@H](c2ccc(NC3Cc4ccccc4C3(C)C)nc2)C(F)(F)F)CC1 (single isomer, unassigned) [Example 144] | – | 210 nM | 2630 nM
CN(C(=O)[C@H]1C[C@@]2(CCN2C)C1)[C@@H](c1ccc(NC2Cc3ccccc3C2(C)C)cn1)C(F)(F)F (single isomer, unassigned) [Example 156] | 1720 nM | 170 nM | –
CN(C(=O)[C@H]1C[C@]2(CCN2C)C1)[C@@H](c1ccc(NC2Cc3ccccc3C2(C)C)cn1)C(F)(F)F (single isomer, unassigned) [Example 159] | – | 140 nM | 1160 nM

Stronger by IC50 [2], values ahead:

IC50 ([1]; 48 hours) | IC50 [2] | IC50 ([1]; Homo sapiens, Jurkat, 48 h) | SMILES
540 nM | 130 nM | – | CN(C(=O)C1CCC(=O)NC1)[C@@H](c1ccc(NC2Cc3ccccc3C2(C)C)cn1)C(F)(F)F (single isomer, unassigned) [Example 106]
700 nM | 120 nM | – | CN(C(=O)C1CCCNC1)[C@@H](c1ccc(NC2Cc3ccccc3C2(C)C)cn1)C(F)(F)F (single isomer, unassigned) [Example 126]
1080 nM | 120 nM | – | CN1CCCC(C(=O)N(C)[C@@H](c2ccc(NC3Cc4ccccc4C3(C)C)cn2)C(F)(F)F)C1 (single isomer, unassigned) [Example 130]
– | 110 nM | 480 nM | CN(C(=O)C1CCNCC1)[C@@H](c1ccc(NC2Cc3ccccc3C2(C)C)cn1)C(F)(F)F (single isomer, unassigned) [Example 146]
3000 nM | 91 nM | – | CCN(C(=O)C1CCS(=O)(=O)CC1)[C@@H](c1ccc(NC2Cc3ccccc3C2(C)C)cn1)C(F)(F)F (single isomer, unassigned) [Example 189]
– | 70 nM | 890 nM | CN(C(=O)C1CC2(CNC(=O)OC2)C1)[C@@H](c1ccc(NC2Cc3ccccc3C2(C)C)nc1)C(F)(F)F (single isomer, unassigned) [Example 174]
510 nM | 68 nM | – | CN(C(=O)C1CCNC(=O)C1)[C@@H](c1ccc(NC2Cc3ccccc3C2(C)C)cn1)C(F)(F)F (single isomer, unassigned) [Example 116]
490 nM | 67 nM | – | CN(C(=O)[C@H]1C[C@H](N(C)C)C1)[C@@H](c1ccc(NC2Cc3ccccc3C2(C)C)cn1)C(F)(F)F (single isomer, unassigned) [Example 113]
770 nM | 64 nM | – | CN(C(=O)[C@H]1C[C@@]2(CCN2C)C1)[C@@H](c1ccc(NC2Cc3ccccc3C2(C)C)cn1)C(F)(F)F (single isomer, unassigned) [Example 157]
330 nM | 62 nM | – | CN(C(=O)C1CCCNC1)[C@@H](c1ccc(NC2Cc3ccccc3C2(C)C)cn1)C(F)(F)F (single isomer, unassigned) [Example 125]
810 nM | 54 nM | – | CN(C(=O)C1CC2(CNC(=O)OC2)C1)[C@@H](c1ccc(NC2Cc3ccccc3C2(C)C)nc1)C(F)(F)F (single isomer, unassigned) [Example 175]
650 nM | 52 nM | – | CN(C(=O)C1CNC(=O)O1)[C@@H](c1ccc(N[C@@H]2Cc3ccccc3C2(C)C)cn1)C(F)(F)F (single isomer, unassigned) [Example 111]
280 nM | 49 nM | – | CN(C(=O)C1CCNC(=O)C1)[C@@H](c1ccc(NC2Cc3ccccc3C2(C)C)cn1)C(F)(F)F (single isomer, unassigned) [Example 118]
650 nM | 47 nM | – | CCN(C(=O)C1CCS(=O)(=O)CC1)[C@@H](c1ccc(NC2Cc3ccccc3C2(C)C)cn1)C(F)(F)F (single isomer, unassigned) [Example 188]
410 nM | 45 nM | – | CN(C(=O)C1CCC(=O)NC1)[C@@H](c1ccc(NC2Cc3ccccc3C2(C)C)cn1)C(F)(F)F (single isomer, unassigned) [Example 107]
230 nM | 36 nM | – | CN(C(=O)C1CCC(=O)NC1)[C@@H](c1ccc(NC2Cc3ccccc3C2(C)C)cn1)C(F)(F)F (single isomer, unassigned) [Example 105]
310 nM | 36 nM | – | CN(C(=O)C1CNC(=O)CO1)[C@@H](c1ccc(NC2Cc3ccccc3C2(C)C)cn1)C(F)(F)F (single isomer, unassigned) [Example 136]
– | 33 nM | 150 nM | CN(C(=O)C1COCC(=O)N1)[C@@H](c1ccc(NC2Cc3ccccc3C2(C)C)cn1)C(F)(F)F (single isomer, unassigned) [Example 164]
149 nM | 16 nM | – | CN(C(=O)C1CNC(=O)O1)[C@@H](c1ccc(N[C@@H]2Cc3ccccc3C2(C)C)cn1)C(F)(F)F (single isomer, unassigned) [Example 110]
